The record followed here is US10596212B2, “Mangifera indica as a Sirtuin 1 activating agent” (Vital Solutions Swiss AG, priority 2014, dated 2020).

The structures appear in SMILES notation.

This test concerns the target T1, human recombinant SIRT1 (Homo sapiens, UniProt Q96EB6).
T1 construct: purchased Cayman Chemical
T1 sequence (Q96EB6 1-747): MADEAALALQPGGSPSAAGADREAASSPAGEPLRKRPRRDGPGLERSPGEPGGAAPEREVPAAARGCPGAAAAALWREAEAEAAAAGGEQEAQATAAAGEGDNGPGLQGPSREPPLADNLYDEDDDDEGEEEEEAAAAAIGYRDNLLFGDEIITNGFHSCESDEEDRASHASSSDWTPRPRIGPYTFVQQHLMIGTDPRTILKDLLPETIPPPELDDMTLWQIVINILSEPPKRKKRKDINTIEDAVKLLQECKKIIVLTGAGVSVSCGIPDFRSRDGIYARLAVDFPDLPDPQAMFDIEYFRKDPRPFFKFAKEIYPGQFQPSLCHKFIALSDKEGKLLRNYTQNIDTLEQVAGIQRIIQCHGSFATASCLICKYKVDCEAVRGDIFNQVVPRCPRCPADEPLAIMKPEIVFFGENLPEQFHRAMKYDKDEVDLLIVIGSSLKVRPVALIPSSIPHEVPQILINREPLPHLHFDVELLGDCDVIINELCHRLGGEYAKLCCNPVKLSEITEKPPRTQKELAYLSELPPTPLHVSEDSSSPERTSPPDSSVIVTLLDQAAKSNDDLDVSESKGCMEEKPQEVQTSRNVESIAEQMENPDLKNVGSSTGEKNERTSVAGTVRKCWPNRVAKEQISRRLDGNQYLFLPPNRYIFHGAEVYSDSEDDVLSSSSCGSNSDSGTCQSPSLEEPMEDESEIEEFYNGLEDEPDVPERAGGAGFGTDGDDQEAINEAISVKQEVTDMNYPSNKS
Kind of test: SIRT1 Direct Fluorescent Screening Assay (Cayman Chemical), SIRT1 activation. Particulars: positive control, working concentration 1 mM, final assay concentration 32.5 μg/ml. In kind it is biochemical. The procedure: The assay was performed using SIRT1 Direct Fluorescent Screening Assay kit, (Cayman Chemical). In the assay resveratrol was used as a positive comparative control in the working concentration of 1 mM, or 228 μg/ml corresponding to a final assay concentration of 32.5 μg/ml.
Cayman's SIRT1 Direct Fluorescent Screening Assay Kit is fluorescence-based method for screening SIRT1 inhibitors or activators. In the first step, the substrate is incubated with human recombinant SIRT1 along with its co-substrate NAD+. Deacetylation sensitizes the substrate such that treatment with the developer in the second step releases a fluorescent product. The fluorophore is analyzed using an excitation wavelength of 350-360 nm and an emission wavelength of 450-465 nm.
The activation is calculated as % activation=(Sample−Initial Activity)/Initial Activity*100.

In the case of `Oc1ccc(C=Cc2cc(O)cc(O)c2)cc1` [resveratrol], the “activation of SIRT1” value was 37.5%.
